Assay results published in US10865406B2, “ALS inhibitor herbicide tolerant Beta vulgaris mutants” (priority 2010, dated 2020).

Key:
[1] = test system: ALS in leaf extracts of wild type sugar beets and SB574TL; assay: ALS enzyme activity measurements from plant leaf extracts; format: biochemical, Beta vulgaris
From the text: When plants are used, ALS activity is preferably determined in cell extracts or leaf extracts of wild type and B. vulgaris cell extracts or leaf extracts of the obtained mutant in the presence of various concentrations of ALS-inhibitor herbicides, preferably sulfonylurea herbicides or sulfonylamino-carbonyltriazolinone herbicides, more preferably in the presence of various concentrations of the ALS inhibitor herbicide “foramsulfuron”. ALS is thus preferably extracted from sugar beet leaves or sugar beet tissue cultures as described by Ray (1984) in Plant Physiol 75:827-831.
ALS was extracted from sugar beet leaves or sugar beet tissue cultures as described by Ray (1984), Plant Physiol 75:827-831.
ALS activity was determined in leaf extracts of wild type and sugar beets and leaf extracts of the obtained SB574TL in presence of various concentrations of foramsulfuron as described in Example 4.
In total, the mutant enzyme was at least 2000 times less sensitive against the ALS inhibitor foramsulfuron than the wild type enzyme.

[2] = test system: wild type sugar beet plants; assay: Herbicide treatment of regenerated plants from wild type cell cultures (greenhouse); format: in vivo, Beta vulgaris; details: lowest doses tested (range 7-70 g a.i./ha foramsulfuron, 1-10 g a.i./ha iodosulfuron-methyl-sodium, mixtures 7:1)
From the text: (§1) Within 4-12 weeks the shoots formed roots and then they were transferred into sterile plant containers filled with wet, sterilized perlite, watered with half strength MS inorganic ingredients. Alternatively the plantlets were transferred directly from the agar solidified medium in a perlite containing soil mixture in the greenhouse. During the first 10-15 days after transfer into soil containing substrate the plants were kept in an environment with high air humidity. During and after they were weaned to normal greenhouse air humidity regimes the plants were kept in the greenhouse under artificial light (12 h) at 20+−3° C./15+−2° C. day/night temperatures.
(§2) 3-5 weeks later, the regenerated plants from the above obtained foramsulfuron tolerant cell culture (SB574TL) as well as from the wild type cell cultures were treated with foramsulfuron, iodosulfuron-methyl-sodium (CAS RN […]) and a mixture of both active ingredients. The herbicide doses tested were equivalent to 7-70 g a.i./ha for foramsulfuron and 1-10 g a.i./ha for iodosulfuron-methyl-sodium.

[3] = test system: Beta vulgaris wild-type and W574L-mutant (SB574TL) ALS; assay: ALS enzyme activity measurements, E. coli expressed enzyme; format: biochemical; details: crude protein extract, from pI50-values
Protocol: The coding sequence of a Beta vulgaris wild-type and a mutant B. vulgaris plant is cloned into, for example, Novagen pET-32a(+) vectors and the vectors are transformed into, for example, Escherichia coli AD494 according to the instructions of the manufacturer. Bacteria are preferably grown at 37° C. in medium under selection pressure such as in LB-medium containing 100 mg/l carbenicillin and 25 mg/l kanamycin, are induced with, for example, 1 mM isopropyl-β-D-thiogalactopyranoside at an OD600 of preferably about 0.6, cultivated for about 16 hours at preferably 18° C. and harvested by centrifugation. Bacterial pellets are resuspended in 100 mM sodium phosphate buffer pH 7.0 containing 0.1 mM thiamine-pyrophosphate, 1 mM MgCl2, and 1 μM FAD at a concentration of 1 gram wet weight per 25 ml of buffer and disrupted by sonification. The crude protein extract obtained after centrifugation is used for ALS activity measurements.
ALS assays are then carried out in, for example, 96-well microtiter plates using a modification of the procedure described by Ray (1984), Plant Physiol., 75, 827-831. The reaction mixture contains preferably 20 mM potassium phosphate buffer pH 7.0, […], 0.45 mM thiamine-pyrophosphate, 0.45 mM MgCl2, 9 μM FAD, ALS enzyme and various concentrations of ALS inhibitors in a final volume of about 90 μl. […]

[4] = test system: sugar beet calli (diploid genotype 7T9044); assay: cells; format: cell-based, Beta vulgaris
Protocol: Sugar beet cell cultures were initiated from seedlings of a diploid sugar beet genotype 7T9044 (as, for example, described by Alexander Dovzhenko, PhD Thesis, Title: “Towards plastid transformation in rapeseed (Brassica napus L.) and sugarbeet (Beta vulgaris L.)”, Ludwig-Maximilians-Universität München, Germany, 2001). Sugar beet seeds were immersed for 60 seconds in 70% ethanol, then rinsed twice in sterile water with 0.01% detergent and then incubated for 1-4 hours in 1% NaOCl bleach. Thereafter the seeds were washed 3 times with sterile H2O and the seeds were stored in sterile water overnight at 4° C. The embryos were then isolated using forceps and scalpel.
The freshly prepared embryos were immersed in 0.5% NaOCl for 30 min and then washed 3 times in sterile water. After the last washing step they were placed on hormone free MS agar medium (Murashige and Skoog (1962), Physiol. Plantarum, 15, 473-497). Those embryos which developed into sterile seedlings were used for the initiation of regenerable sugar beet cell cultures.
Cotyledons as well as hypocotyls were cut into 2-5 mm long segments and then cultivated on agar (0.8%) solidified MS medium containing either 1 mg/l Benzylaminopurine (BAP) or 0.25 mg/l Thidiazuron (TDZ). 4 weeks later the developing shoot cultures were transferred onto fresh agar medium of the same composition and then sub-cultured in monthly intervals. […]

[5] = test system: regenerated plants from SB574TL cell culture; assay: Herbicide treatment of regenerated plants from the foramsulfuron tolerant cell culture (greenhouse); format: in vivo, Beta vulgaris; details: highest doses tested (range 7-70 g a.i./ha foramsulfuron, 1-10 g a.i./ha iodosulfuron-methyl-sodium, mixtures 7:1)
From the text: as §1, §2

[6] = test system: SB574TL sugar beet cell colony; assay: Growth of selected mutant cell colony (clone SB574TL) on foramsulfuron medium; format: cell-based, Beta vulgaris; details: 3×10^−7 M and even 3×10^−6 M foramsulfuron
From the text: When this callus type was exposed to 10^−9 M of the sulfonylurea foramsulfuron (CAS RN 173159-57-4), the cells survived, but produced less than 50% of the biomass of their siblings on medium devoid of the inhibitor. On medium containing 3×10^−8 M foramsulfuron no growth was detectable. For large scale mutant selection experiments 10^−7 M foramsulfuron was chosen. Surviving and growing cell colonies were numbered and transferred after 4-6 weeks onto fresh medium containing 3×10^−7 M of the inhibitor. One of these cell colonies was able to grow not only at this concentration of the inhibitor but even in presence of 3×10^−6 M of foramsulfuron. From this clone (SB574TL), shoots were regenerated in presence of the ALS-inhibitor herbicide and then the shoots were transferred to MS medium containing 0.05 mg/l Naphthalene acetic acid (NAA).
When this callus type was exposed to 10^−9 M of the ALS inhibitor herbicide foramsulfuron (belonging to the sulfonylurea subclass, see above), the cells survived, but produced less than 50% of the biomass of their siblings on medium devoid of the inhibitor. On medium containing 3×10^−8 M foramsulfuron no growth was detectable. For large scale mutant selection experiments, 10^−7 M foramsulfuron was chosen. Surviving and growing cell colonies were numbered and transferred after 4-6 weeks onto fresh medium containing 3×10^−7 M of the inhibitor. […]

Row | Compound | sensitivity of mutant enzyme relative to wild type enzyme (times less sensitive) [1] | effect on wild type plants [2] | sensitivity of mutant enzyme relative to wild type enzyme (times less sensitive) [3] | cell survival of callus ([4]; 10^−9 M foramsulfuron in medium) | viability at 0.001 µM ([4]; Beta vulgaris, read-out: biomass relative to siblings on medium devoid of the inhibitor) [%] | tolerance of regenerated plants to herbicide [5] | growth of mutant cell colony [6]
1 | COc1cc(OC)nc(NC(=O)NS(=O)(=O)c2cc(NC=O)ccc2C(=O)N(C)C)n1 [foramsulfuron] | at least 2000 times | killed | at least 2000 times | survived | < 50 | tolerated even the highest herbicide doses | able to grow
2 | COC(=O)c1ccc(I)cc1S(=O)(=O)[N-]C(=O)Nc1nc(C)nc(OC)n1.[Na+] [iodosulfuron-methyl-sodium] | – | killed | – | – | – | tolerated even the highest herbicide doses | –
